Measurements published in ChEMBL document CHEMBL4699466, “Isolation, reactivity, pharmacological activities and total synthesis of hispanolone and structurally related diterpenes from Labiatae plants” (Bioorg Med Chem Lett, 2020).

How the values were obtained:
RAW264.7 = experiment: Antiinflammatory activity against mouse RAW264.7 cells assessed as inhibition of LPS-induced nitrite accumulation at 10 uM preincubated for 30 mins followed by LPS-stimulation and measured after 24 hrs by Griess reagent based assay relative to control; format: functional; design: scale not given: the % may be the effect or the level left; details: time 24.5 hrs
Acetylcholinesterase = target: T1, Acetylcholinesterase (Rattus norvegicus, UniProt P37136); experiment: Inhibition of Sprague-Dawley rat acetylcholinesterase using acetylthiocholine iodide as substrate measured at 30 secs for 5 mins by Ellman's method
T1 sequence (P37136 whole entry): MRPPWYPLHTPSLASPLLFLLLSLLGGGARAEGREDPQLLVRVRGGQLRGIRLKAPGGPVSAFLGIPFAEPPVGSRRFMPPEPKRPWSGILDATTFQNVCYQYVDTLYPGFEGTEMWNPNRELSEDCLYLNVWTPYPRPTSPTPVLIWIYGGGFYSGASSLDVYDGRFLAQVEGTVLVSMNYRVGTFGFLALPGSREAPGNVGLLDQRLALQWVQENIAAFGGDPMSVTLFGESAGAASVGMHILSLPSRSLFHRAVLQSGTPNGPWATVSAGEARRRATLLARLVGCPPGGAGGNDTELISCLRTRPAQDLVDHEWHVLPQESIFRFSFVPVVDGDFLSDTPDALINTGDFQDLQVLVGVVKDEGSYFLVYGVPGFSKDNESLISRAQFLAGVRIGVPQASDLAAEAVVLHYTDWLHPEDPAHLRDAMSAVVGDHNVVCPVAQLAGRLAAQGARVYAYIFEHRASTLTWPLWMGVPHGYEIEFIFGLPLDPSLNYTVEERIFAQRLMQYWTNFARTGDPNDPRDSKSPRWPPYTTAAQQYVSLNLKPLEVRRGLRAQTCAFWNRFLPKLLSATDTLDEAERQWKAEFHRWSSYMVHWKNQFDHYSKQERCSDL

Sulfotransferase 1E1 = target: T2, Sulfotransferase 1E1 (Homo sapiens, UniProt P49888); experiment: Inhibition of estrogen sulfotransferase in human liver cytosol incubated for 30 mins in presence of [3H]-estradiol and adenosine -3'-phosphate 5'-phosphosulfate by liquid scintillation counting method; format: subcellular
T2 sequence (P49888 whole entry): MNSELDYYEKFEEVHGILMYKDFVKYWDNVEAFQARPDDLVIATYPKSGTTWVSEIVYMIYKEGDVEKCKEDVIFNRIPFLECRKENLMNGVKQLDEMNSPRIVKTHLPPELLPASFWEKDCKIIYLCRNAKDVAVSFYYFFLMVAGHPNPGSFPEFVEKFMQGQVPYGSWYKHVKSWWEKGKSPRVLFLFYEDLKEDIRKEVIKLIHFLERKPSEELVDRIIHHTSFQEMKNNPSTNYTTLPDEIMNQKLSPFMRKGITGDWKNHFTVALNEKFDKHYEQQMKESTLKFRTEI

Neutrophil [1] = experiment: Antiinflammatory activity in human neutrophils assessed as inhibition of fMLF/cytochalasin B-induced superoxide anion generation at 10 uM relative to control; format: functional; design: scale not given: the % may be the effect or the level left
Neutrophil [2] = experiment: Antiinflammatory activity in human neutrophils assessed as inhibition of fMLF/cytochalasin B-induced superoxide anion generation; format: functional, cell-based
Neutrophil [3] = experiment: Antiinflammatory activity in human neutrophils assessed as inhibition of elastase release at 10 uM relative to control; format: functional; design: scale not given: the % may be the effect or the level left
Neutrophil [4] = experiment: Antiinflammatory activity in human neutrophils assessed as inhibition of elastase release; format: functional, cell-based
[5] = Antagonist activity at PAF receptor in rabbit platelet membrane assessed as inhibition of [3H]-PAF binding to PAF receptor; format: cell membranes, Oryctolagus cuniculus, Cell membrane
[6] = Metal chelating activity of the compound assessed as Fe2+-compound complex formation at 0.250 mg/ml incubated for 10 mins in presence of ferrozine solution relative to control; details: dose 0.25 mg/ml
[7] = Metal chelating activity of the compound assessed as Fe2+-compound complex formation at 0.500 mg/ml incubated for 10 mins in presence of ferrozine solution relative to control; details: dose 0.5 mg/ml
[8] = Metal chelating activity of the compound assessed as Fe2+-compound complex formation at 1 mg/ml incubated for 10 mins in presence of ferrozine solution relative to control
[9] = target: 11-beta-hydroxysteroid dehydrogenase 1 (Homo sapiens) (UniProt P28845); experiment: Inhibition of human 11beta-HSD1 expressed in HEK-293 cells assessed as residual activity at […] using radiolabeled cortisone as substrate by scintillation counting; format: cell-based; details: HEK293
Mus musculus = species: Mus musculus; experiment: cells; details: Swiss-Taconi
Description: Antiinflammatory activity in Swiss-Taconi mouse assessed as reduction in TPA-induced ear edema

11-beta-hydroxysteroid dehydrogenase 1 (Homo sapiens), sequence (P28845 whole entry, looked up): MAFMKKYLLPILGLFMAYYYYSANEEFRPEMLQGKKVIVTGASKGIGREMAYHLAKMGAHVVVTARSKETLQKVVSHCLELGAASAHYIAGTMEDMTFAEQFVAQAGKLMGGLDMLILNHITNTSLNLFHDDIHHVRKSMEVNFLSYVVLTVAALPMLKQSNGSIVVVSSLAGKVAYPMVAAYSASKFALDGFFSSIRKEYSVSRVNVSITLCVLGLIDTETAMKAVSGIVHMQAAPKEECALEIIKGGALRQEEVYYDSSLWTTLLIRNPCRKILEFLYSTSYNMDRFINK

CC1=C(CCC2=CC(=O)OC2O)[C@@]2(C)CCCC(C)(C)[C@@H]2CC1=O (some centres undefined)
Activity (RAW264.7): 84.1%

CC1=C(CCc2ccoc2)[C@@]2(C)CCCC(C)(C)[C@@H]2CC1=O
IC50 (Acetylcholinesterase): 38.5 µM
IC50 (Sulfotransferase 1E1): 19.8 µM
Activity (Neutrophil [1]): 58.43%
IC50 (Neutrophil [2]): 8.48 µM
Activity (Neutrophil [3]): 70.06%
IC50 (Neutrophil [4]): 5.42 µM

C[C@@H]1C(=O)C[C@H]2C(C)(C)CCC[C@]2(C)[C@@]12CC[C@]1(C=COC1)O2
IC50 [5]: 4 µM

C[C@@H]1C(=O)C[C@H]2C(C)(C)CCC[C@]2(C)[C@@]1(O)CCc1ccoc1
Activity [6]: 96%
Activity [7]: 97%
Activity [8]: 97.3%
Activity [9]: 20%
IC50 (Mus musculus): 1.05 µM

CCC1=C(Cc2ccoc2)C(=O)[C@@]2(C)CCCC(C)(C)[C@@H]2C1
Activity (RAW264.7): 35.53%
